Measured values: publication PMC6792352, “Limited Chemical Structural Diversity Found to Modulate Thyroid Hormone Receptor in the Tox21 Chemical Library” (Environmental Health Perspectives, 2019)
Structures can show the parent of a compound that is named as a salt. Where two headings read alike, the source gives them in different places.

Test system: GH3-TRE-Luc cell line
Details: read-out: AC50 (uM) modified / 1000, viability, 1 nM T3 present, 24 h

Q: How did the CC50 (Tox21_110001=Tox21_110901) turn out when `CC[C@H]1CN2CCc3cc(OC)c(OC)cc3[C@@H]2C[C@@H]1C[C@H]1NCCc2cc(OC)c(OC)cc21` [Emetine] was run?
A: 0.0872 µM

Q: For `Oc1cc(Cl)ccc1Oc1ccc(Cl)cc1Cl` [Triclosan], which CC50 (Tox21_110001=Tox21_111648) is on record?
A: 50.4 µM

Q: What about the CC50 (Tox21_110001=Tox21_400079) of the same compound?
A: 13.3 µM

Q: Which CC50 (Tox21_110001=Tox21_300477) does the source give for `O=[N+]([O-])c1ccc(O)cc1` [Sodium 4-nitrophenolate] here?
A: 44.7 µM

Q: With `CN1CCc2cccc3c2[C@H]1Cc1ccc(O)c(O)c1-3` [Apomorphine] as the compound, how does the CC50 (Tox21_110001=Tox21_110967) read?
A: 27.3 µM

Q: For `O=S1(=O)OC(c2ccc(O)cc2)(c2ccc(O)cc2)c2ccccc21` [Phenol red], which CC50 (Tox21_110001=Tox21_303570) is on record?
A: 79.8 µM

Q: With `NC(=O)c1ncn([C@@H]2O[C@H](CO)[C@@H](O)[C@H]2O)n1` [Ribavirin] as the compound, how does the CC50 (Tox21_110001=Tox21_110259) read?
A: 40.1 µM

Q: Which CC50 (Tox21_110001=Tox21_113091) does the source give for `CCCCCCCCCCCC[N+](C)(C)Cc1ccccc1` [Benzyldodecyldimethylammonium bromide] here?
A: 5.39 µM

Q: How did the CC50 (Tox21_110001=Tox21_110211) turn out when `COC(=O)C1=C(C)NC(C)=C(C(=O)OCCN(C)Cc2ccccc2)C1c1cccc([N+](=O)[O-])c1` (centres unmarked) [Nicardipine] was run?
A: 7.48 µM

Q: And the CC50 (Tox21_110001=Tox21_301832)?
A: 22.2 µM

Q: What does the source list for `Oc1cccc2cccnc12` [8-Hydroxyquinoline]?
A: CC50 (Tox21_110001=Tox21_113083): 3 µM; CC50 (Tox21_110001=Tox21_202986): 3.28 µM; CC50 (Tox21_110001=Tox21_400006): 3.8 µM

Q: How did the CC50 (Tox21_110001=Tox21_200943) turn out when `CC/C(=C(\c1ccc(O)cc1)c1ccc(OCCN(C)C)cc1)c1ccccc1` [(Z)-4-Hydroxytamoxifen] was run?
A: 5.77 µM

Q: With `C[C@H](Cc1ccc(O)c(O)c1)[C@@H](C)Cc1ccc(O)c(O)c1` [Masoprocol] as the compound, how does the CC50 (Tox21_110001=Tox21_110210) read?
A: 9.04 µM

Q: How did the CC50 (Tox21_110001=Tox21_113122) turn out when `CN(C)CCC=C1c2ccccc2CCc2ccccc21` [Amitriptyline hydrochloride] was run?
A: 18.1 µM

Q: And the CC50 (Tox21_110001=Tox21_201278)?
A: 8.86 µM

Q: And the CC50 (Tox21_110001=Tox21_303612)?
A: 13.7 µM

Q: How did the CC50 (Tox21_110001=Tox21_301752) turn out when `Nc1c(S(=O)(=O)O)cc(Br)c2c1C(=O)c1ccccc1C2=O` [1-Amino-4-bromo-9,10-dioxo-9,10-dihydroanthracene-2-sulfonic] [1-Amino-4-bromo-9,10-dioxo-9,10-dihydroanthracene-2-sulfonic acid] was run?
A: 60.1 µM

Q: How did the CC50 (Tox21_110001=Tox21_111656) turn out when `CN(C)C(=S)SC(=S)N(C)C` [Tetramethylthiuram monosulfide] was run?
A: 2.19 µM

Q: And the CC50 (Tox21_110001=Tox21_201554)?
A: 1.5 µM

Q: What about the CC50 (Tox21_110001=Tox21_302880) of the same compound?
A: 0.329 µM

Q: Which results are given for `Nc1ccc(/N=N/c2ccccc2)c(N)n1` [Phenazopyridine hydrochloride]?
A: CC50 (Tox21_110001=Tox21_110829): 18.5 µM; CC50 (Tox21_110001=Tox21_202153): 45.2 µM; CC50 (Tox21_110001=Tox21_302738): 44.8 µM

Q: Which CC50 (Tox21_110001=Tox21_200695) does the source give for `CCCCCCCC[n+]1ccn(C)c1` [1-Methyl-3-octylimidazolium tetrafluoroborate] here?
A: 44.3 µM

Q: What does the source list for `CCCCCCCCCc1ccc(O)cc1` [4-Nonylphenol, branched]?
A: CC50 (Tox21_110001=Tox21_111040): 28.7 µM; CC50 (Tox21_110001=Tox21_201528): 23.6 µM; CC50 (Tox21_110001=Tox21_300576): 22.3 µM

Q: How did the CC50 (Tox21_110001=Tox21_202817) turn out when `NC[C@H]1O[C@H](O[C@H]2[C@H](O)[C@@H](O[C@H]3O[C@H](CO)[C@@H](O)[C@H](N)[C@H]3O)[C@H](N)C[C@@H]2N)[C@H](O)[C@@H](O)[C@@H]1O` [Kanamycin A sulfate] was run?
A: 3.08 µM

Q: With `CCCCCCCCCCCCn1cc[n+](C)c1` [1-Dodecyl-3-methylimidazolium tetrafluoroborate] as the compound, how does the CC50 (Tox21_110001=Tox21_202629) read?
A: 3.46 µM

Q: For `CCCCCCCCCCCCCC[P+](CCCCCC)(CCCCCC)CCCCCC` [Trihexyltetradecylphosphonium bromide], which CC50 (Tox21_110001=Tox21_200809) is on record?
A: 5.4 µM

Q: For `NCCc1ccc(O)c(O)c1` [Dopamine], which CC50 (Tox21_110001=Tox21_110167) is on record?
A: 37 µM

Q: What does the source list for `O=C(CCCN1CCC(O)(c2ccc(Cl)cc2)CC1)c1ccc(F)cc1` [Haloperidol]?
A: CC50 (Tox21_110001=Tox21_110162): 20.6 µM; CC50 (Tox21_110001=Tox21_300475): 52.1 µM

Q: For `CN(C)c1ccc(C(=C2C=CC(=[N+](C)C)C=C2)c2ccc(N(C)C)cc2)cc1` [Gentian Violet], which CC50 (Tox21_110001=Tox21_111084) is on record?
A: 1.65 µM

Q: And the CC50 (Tox21_110001=Tox21_201762)?
A: 0.893 µM

Q: What about the CC50 (Tox21_110001=Tox21_300571) of the same compound?
A: 0.536 µM

Q: How did the CC50 (Tox21_110001=Tox21_201402) turn out when `BrC1CCC(Br)C(Br)CCC(Br)C(Br)CCC1Br` (centres unmarked) [1,2,5,6,9,10-Hexabromocyclododecane] was run?
A: 17.5 µM

Q: And the CC50 (Tox21_110001=Tox21_303176)?
A: 38.8 µM

Q: What does the source list for `COc1cccc2c1C(=O)c1c(O)c3c(c(O)c1C2=O)C[C@@](O)(C(=O)CO)C[C@@H]3O[C@H]1C[C@H](N)[C@H](O)[C@H](C)O1` [Adriamycin hydrochloride]?
A: CC50 (Tox21_110001=Tox21_112061): 1.54 µM; CC50 (Tox21_110001=Tox21_202483): 0.253 µM

Q: For `Cc1oncc1C(=O)Nc1ccc(C(F)(F)F)cc1` [Leflunomide], which CC50 (Tox21_110001=Tox21_110182) is on record?
A: 9.39 µM

Q: What about the CC50 (Tox21_110001=Tox21_301873) of the same compound?
A: > 90 µM

Q: Which results are given for `Cc1ccc(-c2cc(C(F)(F)F)nn2-c2ccc(S(N)(=O)=O)cc2)cc1` [Celecoxib]?
A: CC50 (Tox21_110001=Tox21_111135): 21.2 µM; CC50 (Tox21_110001=Tox21_201964): 46.6 µM; CC50 (Tox21_110001=Tox21_300599): 62.4 µM

Q: With `CC(=O)Nc1ccc(C(=O)CCl)cc1` [4'-(Chloroacetyl)acetanilide] as the compound, how does the CC50 (Tox21_110001=Tox21_302954) read?
A: 16.5 µM

Q: `O=S(=O)(O)c1ccc2c(N=Nc3ccc(S(=O)(=O)O)c4ccccc34)c(O)c(S(=O)(=O)O)cc2c1` [Amaranth] was tested. Which CC50 (Tox21_110001=Tox21_112280) did it give?
A: 19.3 µM

Q: For `O=C(c1ccc(OCCN2CCCCC2)cc1)c1c(-c2ccc(O)cc2)sc2cc(O)ccc12` [Raloxifene hydrochloride], which CC50 (Tox21_110001=Tox21_110255) is on record?
A: 5.6 µM

Q: And the CC50 (Tox21_110001=Tox21_302369)?
A: 2.98 µM

Q: For `O=C1OC2(c3ccccc31)c1cc(Br)c(O)c(Br)c1Oc1c2cc(Br)c(O)c1Br` [Eosin], which CC50 (Tox21_110001=Tox21_112323) is on record?
A: 9.05 µM

Q: What about the CC50 (Tox21_110001=Tox21_302152) of the same compound?
A: 8.28 µM
